Holding throughout (settings): incubation time: 72 h
Assay [1] has as its system BT-474. As to the kind of experiment: normalised response (% of control), CellTiter-Glo; higher = more viable cells (100 = DMSO, 0 = benzethonium chloride kill control). On the procedure:
(§1)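 DSRT, 72 h incubation, CellTox Green / CellTiter-Glo readout. Signal is normalised to DMSO and benzethonium chloride controls. Value is the normalised response at the highest dose.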

Assay [2] relates to CAL-148. The description is as above. On the procedure:
as §1

Assay [3] has as its system CAL-85-1. The description is as above. Here is the method: as §1
Assay [4] relates to DU-4475. The description is as above. Here is the method: as §1
Assay [5] has as its system MDA-MB-436. The assay is described as above. Here is the method: as §1
In assay [6] the test system is MDA-MB-468. The assay is described as above. Here is the method:
as §1

Assay [7] deals with SK-BR-3. The description is as above. On the procedure: as §1
Assay [8] concerns BT-474. As to the kind of experiment: normalised viability (% of control), CellTiter-Blue; higher = more viable cells (about 100 = DMSO control). Summed up: (§2)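 After 72 h on compound-loaded 384-well plates, breast cancer cell lines received 2.5 µl CellTiter-Blue reagent for 2 h at 37 °C. Fluorescence at 560/590 nm was scaled per plate so that vehicle was 100 and a positive kill control was 0. The value stands for normalised viability at a single listed concentration of the series.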

In assay [9] the test system is BT-549. The assay is described as above. Summed up:
as §2

Assay [10] has as its system CAL-148. The assay is described as above. Summed up:
as §2

Assay [11] deals with CAL-51. Described as above. A digest of the protocol: as §2
Assay [12] relates to CAL-85-1. The description is as above. A digest of the protocol:
as §2

The test system of assay [13] is DU-4475. Described as above. Summed up: as §2
Assay [14] relates to HCC1143. The description is as above. A digest of the protocol: as §2
Assay [15] relates to HCC1937. Described as above. A digest of the protocol:
as §2

Assay [16] relates to HDQ-P1. Described as above. A digest of the protocol: as §2
The subject of assay [17] is Hs578T. Described as above. A digest of the protocol:
as §2

Assay [18] concerns MDA-MB-231. Described as above. A digest of the protocol: as §2
Assay [19] concerns MDA-MB-436. The assay is described as above. Summed up:
as §2

Assay [20] deals with MDA-MB-453. The assay is described as above. Summed up: as §2
Assay [21] concerns MDA-MB-468. The assay is described as above. Summed up:
as §2

The test system of assay [22] is MFM-223. The assay is described as above. Summed up: as §2

Consider eight molecules from the supplement of paper PMC4862054.

Each structure is given as a SMILES string.

For `CN1CCC(COc2cnc(-c3cccc(Cn4nc(-c5cccc(C#N)c5)ccc4=O)c3)nc2)CC1` (1000 nM), the normalised response in assay [1] amounted to 93.3%; in assay [2], 94.5%; in assay [3], 99.8%; in assay [4] it was 101%; in assay [5], 84.4%; in assay [6] it was 90.3%. For the same molecule, in assay [7], the normalised response was 81%.

On to `CN(C)C/C=C/C(=O)Nc1cc2c(Nc3ccc(F)c(Cl)c3)ncnc2cc1O[C@H]1CCOC1` [Afatinib] (1000 nM), for which the normalised response is 80.2% in [1]; 78.6% in assay [2]; 61.7% in [3]; 100% in [4]; 98% in assay [5]; 66.8% in assay [6]. The normalised response in assay [7] was found to be 24.8%.

In the case of `CN1CC[C@H](c2c(O)cc(O)c3c(=O)cc(-c4ccccc4Cl)oc23)[C@H](O)C1` [Alvocidib] (10000 nM), the normalised response in assay [1] was found to be 21.7%; in [2] it was 58.3%; in assay [3] it was 7.8%; in assay [4], 8.12%; in assay [5], 20.1%; in assay [6], 5.01%. In addition, the normalised response in assay [7] stood at 1.32%.

Regarding `Nc1nc(Cl)nc2c1ncn2[C@H]1C[C@H](O)[C@@H](CO)O1` [Cladribine] (1000 nM), the normalised response stood at 74.8% in assay [1]; 93.6% in assay [2]; 75.5% in assay [3]; 92.9% in assay [4]; 77.3% in assay [5]; 87.9% in assay [6]. For the same molecule, the normalised response in assay [7] is 74.1%.

For `Nc1ccn([C@@H]2O[C@H](CO)[C@@H](O)[C@@H]2O)c(=O)n1` [Cytarabine] (10000 nM), the normalised response in [1] was determined as 87.2%; in [2], 40.2%; in assay [3], 69.3%; in [4] it was 69.6%; in [5], 38.7%; in [6] it was 62.9%. In [7], the normalised response is 43%.

`Cc1c2oc3c(C)ccc(C(=O)N[C@@H]4C(=O)N[C@H](C(C)C)C(=O)N5CCC[C@H]5C(=O)N(C)CC(=O)N(C)[C@@H](C(C)C)C(=O)O[C@@H]4C)c3nc-2c(C(=O)N[C@@H]2C(=O)N[C@H](C(C)C)C(=O)N3CCC[C@H]3C(=O)N(C)CC(=O)N(C)[C@@H](C(C)C)C(=O)O[C@@H]2C)c(N)c1=O` [Dactinomycin] (1000 nM): the normalised response in assay [1] came to 12.8%; in assay [2] it was 52%; in assay [3], 5.09%; in assay [4], 3.22%; in assay [5], 17.1%; in assay [6], 4.19%. Besides, the normalised response in assay [7] is 1.39%.

`COc1cccc2c1C(=O)c1c(O)c3c(c(O)c1C2=O)C[C@@](O)(C(=O)CO)C[C@@H]3O[C@H]1C[C@H](N)[C@H](O)[C@H](C)O1` [Doxorubicin] (1000 nM): the normalised response in assay [1] worked out at 22.1%; in [2] it was 1.22%; in [3], 17.7%; in assay [4], 0.14%; in assay [5], 28.6%; in assay [6], 7.26%. The normalised response in assay [7] turned out to be 8.83%.

In the case of `Cc1ccc(F)c(NC(=O)Nc2ccc(-c3cccc4[nH]nc(N)c34)cc2)c1` [Linifanib], the normalised viability in assay [8] (1 nM) was found to be 113%; in assay [8] (100 nM) it was 108%; in assay [8] (1000 nM), 123%; in [9] (1 nM), 91.5%; in assay [9] (100 nM) it was 96%; in assay [9] (1000 nM), 97.5%. The normalised viability in assay [10] (0.3 nM) was 93%; in assay [10] (3 nM), 96.3%; in assay [10] (10 nM), 94.4%; in assay [11] (0.3 nM), 106%; in assay [11] (3 nM), 105%; in assay [11] (10 nM) it was 107%. Besides, the normalised viability in assay [12] (0.3 nM) was determined as 93.9%; in assay [12] (3 nM), 87.9%; in [12] (10 nM), 98.8%; in assay [13] (0.3 nM), 103%; in assay [13] (3 nM) it was 93.6%; in assay [13] (10 nM) it was 108%. The normalised viability amounted to 112% in [14] (1 nM); 89% in assay [14] (100 nM); 93.9% in assay [14] (1000 nM); 147% in assay [15] (1 nM); 93.6% in assay [15] (100 nM); 111% in [15] (1000 nM). For the same molecule, the normalised viability in [16] (0.3 nM) worked out at 107%; in assay [16] (3 nM) it was 111%; in assay [16] (10 nM), 103%; in assay [17] (1 nM), 114%; in [17] (100 nM) it was 101%; in assay [17] (1000 nM) it was 91.3%. For the same molecule, the normalised viability in [18] (1 nM) was 115%; in assay [18] (100 nM) it was 101%; in [18] (1000 nM), 109%; in assay [19] (1 nM), 108%; in [19] (100 nM), 110%; in assay [19] (1000 nM), 120%. Moreover, the normalised viability in assay [20] (0.3 nM) amounted to 111%; in assay [20] (3 nM), 111%; in assay [20] (10 nM), 104%; in assay [21] (1 nM), 182%; in assay [21] (100 nM), 111%; in assay [21] (1000 nM), 104%. Further, the normalised viability in assay [22] (1 nM) stood at 101%; in assay [22] (100 nM), 96.6%; in [22] (1000 nM), 98.4%.
